{
  "source": "patent US7342137B1",
  "about": "“Cyclohexenone compounds from Antrodia camphorata and application thereof” (Golden Biotechnology Corporation, priority 2007, dated 2008)",
  "key": {"[1]": {"system": "human hepatic cancer cells, Hep G2", "assay": "In vitro Taxol add-on study (MTT), Hep G2", "format": "cell-based", "settings": "0.0017 μg/ml Taxol 72 hours, 0 μg/ml formula 2", "method": "(§1) The experiment was also carried out according to NCI anti-cancer drug screen in vitro model. The human hepatic cancer cells, Hep 3B and Hep G2 and MDA-MB-231 were separately cultivated in media containing fetal calf serum for 24 hours. The proliferated cells were washed once with PBS, then treated with 1× trypsin-EDTA and centrifuged at 1200 rpm for 5 minutes. The supernatant was discarded and the cell pellet was resuspended in 10 ml of fresh culture medium by gently shaking. The Hep 3B cells were treated with 0.0043 μg/ml of Lovastatin for 72 hours and Hep G2 cells were treated with 0.0017 μg/ml of Taxol for 72 hours before placing in a 96-well plate. 4-hydroxy-2,3-dimethoxy-6-methyl-5(3,7,11-trimethyl-dodeca-2,6,10-trienyl)-cyclohex-2-enone obtained from example 1 were added respectively into each of the 96 wells at the following concentrations: 0 μg/ml (the control group); 30, 10, 3, 1, 0.3, 0.1 and 0.03 μg/ml (the experiment group). The cells were incubated at 37° C. in a 5% CO2 incubator for 48 hours. MTT was added in a concentration of 2.5 mg/ml into each well in dark and reacted for 4 hours, followed by the addition of 100 μl of lysis buffer to stop the reaction. The plates were read on an ELISA reader at wavelength of 570 nm to determine the survival rates."}, "[2]": {"system": "human prostate cancer cells, DU-145", "assay": "In vitro Taxol add-on study (MTT), prostate cancer cells DU-145", "format": "cell-based", "settings": "DU-145 (0.0043 μg/ml Taxol) as printed in Table 6; 0 μg/ml formula 2", "method": "as §1, with “human prostate” for “human hepatic”, “cells, LNCaP” for “cells, Hep 3B”, “and DU-145” for “and Hep G2 and MDA-MB-231”, “The LNCaP cells were treated with 0.0017 μg/ml of Taxol for 72 hours and DU-145” for “The Hep 3B”, “0.0043” for “0.0043 μg/ml of Lovastatin for 72 hours and Hep G2 cells were treated with 0.0017”"}, "[3]": {"system": "human prostate cancer cells, LNCaP", "assay": "In vitro Taxol add-on study (MTT), prostate cancer cells LNCaP", "format": "cell-based", "settings": "LNCaP (0.0017 μg/ml Taxol) as printed in Table 6; 0 μg/ml formula 2", "method": "as §1, with “human prostate” for “human hepatic”, “cells, LNCaP” for “cells, Hep 3B”, “and DU-145” for “and Hep G2 and MDA-MB-231”, “The LNCaP cells were treated with 0.0017 μg/ml of Taxol for 72 hours and DU-145” for “The Hep 3B”, “0.0043” for “0.0043 μg/ml of Lovastatin for 72 hours and Hep G2 cells were treated with 0.0017”"}, "[4]": {"system": "human breast-cancer cells, MDA-MB-231", "assay": "In vitro Taxol add-on study (MTT), MDA-MB-231", "format": "cell-based", "settings": "0.0017 μg/ml Taxol 72 hours, 0 μg/ml formula 2", "method": "as §1, with “breast-cancer” for “hepatic cancer”, “MCF-7” for “Hep 3B and Hep G2”, “The” for “The Hep 3B”, “placed” for “treated with 0.0043 μg/ml of Lovastatin for 72 hours and Hep G2 cells were treated with 0.0017 μg/ml of Taxol for 72 hours before placing”, “plate after 0.0017 μg/ml Taxol was added and treated for 72 hours.” for “plate.”, “terminate” for “stop”"}, "[5]": {"system": "human breast-cancer cells, MCF-7", "assay": "In vitro Taxol add-on study (MTT), MCF-7", "format": "cell-based", "settings": "0.0017 μg/ml Taxol 72 hours, 0 μg/ml formula 2", "method": "as §1, with “breast-cancer” for “hepatic cancer”, “MCF-7” for “Hep 3B and Hep G2”, “The” for “The Hep 3B”, “placed” for “treated with 0.0043 μg/ml of Lovastatin for 72 hours and Hep G2 cells were treated with 0.0017 μg/ml of Taxol for 72 hours before placing”, “plate after 0.0017 μg/ml Taxol was added and treated for 72 hours.” for “plate.”, “terminate” for “stop”"}, "[6]": {"system": "Human low density lipoprotein (LDL)", "assay": "In vitro antioxidant activity study (Cu2+-induced LDL oxidation, diene formation)", "format": "biochemical", "settings": "for Tlag: LDL oxidised with 5 μM CuSO4; for Capacity values: capacity value 1 = 2 μM Trolox; for ΔTlag: difference between Tlag and Tlag0 (H2O)", "method": "Human low density lipoprotein (LDL) oxidated with copper ion (Cu^2+) has been widely employed to assess antioxidant activities of samples to be assayed. Antioxidant activity of a sample is determined by the diene contents of LDL after oxidation and expressed in Trolox equivalents by using a standard curve calculated from the water-soluble vitamin E analogue Trolox standards (the antioxidant capacity value of 1 is expressed in terms of 2 μM of Trolox).\nThe following solutions were prepared firstly: double distilled water (the negative control group), 5 mM sodium phosphate buffer (SPB), 1 μM and 2 μM Trolox solution (the positive control group), and 40 μg/ml 4-hydroxy-2,3-dimethoxy-6-methyl-5(3,7,11-trimethyl-dodeca-2,6,10-trienyl)-cyclohex-2-enone isolated from example 1. The concentration of LDL cholesterol (LDL-C) was determined using enzyme reaction method, which was diluted to 0.1-0.25 mg/ml with 5 mM SPB. One hundred μl of the LDL was added into each well of a 96-well quartz plate, followed by addition of the abovementioned Trolox and the isolated compound from example 1. Standardized oxidizing agent CuSO4 was supplemented to induce oxidation at a final concentration of 5 μM in each 250 μl well. The plate was read on an ELISA reader at wavelength of 232 nm at 37 °C for 12 hours. The sampling time was 15 min."}, "[7]": {"system": "human hepatic cancer cells, Hep 3B", "assay": "In vitro Lovastatin add-on study (MTT), Hep 3B", "format": "cell-based", "settings": "0.0043 μg/ml Lovastatin 72 hours, 0 μg/ml formula 2", "method": "as §1"}},
  "data": [
    {"smiles": "CC(=O)O[C@H]1C(=O)[C@@]2(C)[C@H]([C@H](OC(=O)c3ccccc3)[C@]3(O)C[C@H](OC(=O)[C@H](O)[C@@H](NC(=O)c4ccccc4)c4ccccc4)C(C)=C1C3(C)C)[C@]1(OC(C)=O)CO[C@@H]1C[C@@H]2O", "note": "[Taxol, reference compound]", "values": [
      {"measurement": "Cell survival rate (%)", "setting": "[1]", "value": "81 ± 2", "unit": "%"},
      {"measurement": "Cell survival rate (%)", "setting": "[2]", "value": "70 ± 2", "unit": "%"},
      {"measurement": "Cell survival rate (%)", "setting": "[3]", "value": "56 ± 3", "unit": "%"},
      {"measurement": "Cell survival rate (%)", "setting": "[4]", "value": "76 ± 3", "unit": "%"},
      {"measurement": "Cell survival rate (%)", "setting": "[5]", "value": "65 ± 1", "unit": "%"}
    ]},
    {"smiles": "Cc1c(C)c2c(c(C)c1O)CCC(C)(C(=O)O)O2", "note": "(stereo not drawn) [Trolox]", "values": [
      {"measurement": "Tlag", "setting": "[6]; 1 μM Trolox", "value": 266, "unit": "min"},
      {"measurement": "Capacity values", "setting": "[6]; 1 μM Trolox", "value": 0.48},
      {"measurement": "ΔTlag", "setting": "[6]; 1 μM Trolox", "value": 81, "unit": "min"},
      {"measurement": "Tlag", "setting": "[6]; 2 μM Trolox", "value": 344, "unit": "min"},
      {"measurement": "Capacity values", "setting": "[6]; 2 μM Trolox", "value": 1.00},
      {"measurement": "ΔTlag", "setting": "[6]; 2 μM Trolox", "value": 159, "unit": "min"}
    ]},
    {"smiles": "CC[C@H](C)C(=O)O[C@H]1C[C@@H](C)C=C2C=C[C@H](C)[C@H](CC[C@@H]3C[C@@H](O)CC(=O)O3)[C@H]21", "note": "[Lovastatin, reference compound]", "values": [
      {"measurement": "Cell survival rate (%)", "setting": "[7]", "value": "61 ± 3", "unit": "%"}
    ]}
  ]
}
